US20240115705A1, “Regulation of Butyrophilin subfamily 3 member A1 (BTN3A1, CD277)” (The J. Gladstone Institutes, a testamentary trust …, priority 2021, published 2024)
Where two headings read alike, the source gives them in different places.

Tested on: Daudi-Cas9 cells
Experiment: Cancer-T cell co-culture genome-wide CRISPR knockout screen (Vγ9Vδ2 T cell killing)
Format: cell-based, human
[1] = MAGeCK sgRNA test, co-culture screen
[2] = log-fold change of sgRNA, surviving cells after co-culture vs baseline, MAGeCK
[3] = sgRNA abundance in surviving Daudi-Cas9 KO cells after 24 hours Vγ9Vδ2 T cell co-culture with zoledronate, MAGeCK
[4] = sgRNA enriched (TRUE) or depleted (FALSE) after T cell co-culture

Row | Substance | score [1] | LFC [2] | treat mean [3] | high_in_treatment [4] | LFC | high_in_treatment | score | treat mean
1 | GMPPB_GCCGTGAGCTACATGTCGC: library sgRNA targeting GMPPB (listed as DNA, chemistry not fully specified) | 6.4797 | −2.6559 | 627.87 | FALSE |  |  |  | 
2 | SCO1_CACCCCCGTGGTCGCAGAA: library sgRNA targeting SCO1 (listed as DNA, chemistry not fully specified) | 10.413 | −3.6001 | 714.32 | FALSE |  |  |  | 
3 | RFXAP_ACAGGGTTGCATCACTAGC: library sgRNA targeting RFXAP (listed as DNA, chemistry not fully specified) | 10.037 | 1.6018 | 4884.6 | TRUE |  |  |  | 
4 | BTN2A1_ATGAGGGGCCATGAAGACG: library sgRNA targeting BTN2A1 (listed as DNA, chemistry not fully specified) | 7.3174 | 2.3876 | 1007.3 | TRUE |  |  |  | 
5 | SPI1_ATACTCGTGCGTTTGGCGT: library sgRNA targeting SPI1 (as printed in the source, key not given here) | 8.1546 | 1.1261 | 6915.7 | TRUE |  |  |  | 
6 | SARS2_GCACGGTGCTCACCACGTC: library sgRNA targeting SARS2 (chemistry not given here) |  |  |  |  | −3.8724 | FALSE | 6.2052 | 200.19
7 | FBXW7_TGAAGTCTCGTTGAAACTG: library sgRNA targeting FBXW7 (as printed in the source, key not given here) | 6.8093 | 1.4811 | 2652.5 | TRUE |  |  |  | 
8 | MRPL28_TTCCCCCCGAATCCCAGCG: library sgRNA targeting MRPL28 (as printed in the source, key not given here) | 7.2159 | −3.2156 | 469.77 | FALSE |  |  |  | 
9 | DKK1_CGCTAGTCCCACCCGCGGA: library sgRNA targeting DKK1 (as printed in the source, key not given here) | 6.0866 | 1.0785 | 4197.4 | TRUE |  |  |  | 
10 | SPIB_CCTCGTGGCTGGCCCCGAG: library sgRNA targeting SPIB (as printed in the source, key not given here) | 7.9175 | 1.2165 | 5523.4 | TRUE |  |  |  | 
11 | RPP38_CGATTCTCTCACTGAGCCG: library sgRNA targeting RPP38 (as printed in the source, key not given here) | 7.8058 | −3.1996 | 558.49 | FALSE |  |  |  | 
12 | BTN3A1_GGGAGCCGGTTACTTCCTG: library sgRNA targeting BTN3A1 (listed as DNA, chemistry not fully specified) | 21.24 | 2.5697 | 7249.9 | TRUE |  |  |  | 
13 | SPIB_GGGTACGGGGCATATGCCG: library sgRNA targeting SPIB (as printed in the source, key not given here) | 10.693 | 1.7824 | 4360 | TRUE |  |  |  | 
14 | ZC3H12A_CCGTGACCTCCAAGGCGAG: library sgRNA targeting ZC3H12A (listed as DNA, chemistry not fully specified) | 6.507 | 1.2168 | 3712.6 | TRUE |  |  |  | 
15 | EEFSEC_TCACGCTGGTCGACTGCCC: library sgRNA targeting EEFSEC (listed as DNA, chemistry not fully specified) | 6.5622 | −8.5255 | 6.8247 | FALSE |  |  |  | 
16 | ABCF1_AGCATCTCCGCTCATGGCA: library sgRNA targeting ABCF1 (listed as DNA, chemistry not fully specified) | 5.9741 | −2.7126 | 504.57 | FALSE |  |  |  | 
17 | IRF1_CACCTCCTCGATATCTGGC: library sgRNA targeting IRF1 (as printed in the source, key not given here) | 8.8869 | 1.2122 | 7029.4 | TRUE |  |  |  | 
18 | BTN2A1_TCTTGGAAGTAACAGCGGT: library sgRNA targeting BTN2A1 (listed as DNA, chemistry not fully specified) | 18.758 | 2.4492 | 6366.6 | TRUE |  |  |  | 

Row | Substance | score [1] | LFC [2] | treat mean [3] | high_in_treatment [4] | LFC | high_in_treatment | score | treat mean
19 | SPIB_CGGGTCGAAGGCTTCATAG: library sgRNA targeting SPIB (as printed in the source, key not given here) | 6.9394 | 1.7479 | 1900.6 | TRUE |  |  |  | 
20 | BTN3A2_GCGGGATGGCATCACTGCA: library sgRNA targeting BTN3A2 (listed as DNA, chemistry not fully specified) | 15.831 | 2.3489 | 5012.6 | TRUE |  |  |  | 
21 | CCDC82_AAGAGCTTGATAGTAACAA: library sgRNA targeting CCDC82 (listed as DNA, chemistry not fully specified) | 7.3303 | 4.8194 | 83.034 | TRUE |  |  |  | 
22 | BTN3A1_AGAGTTGAGAGAAATGGCA: library sgRNA targeting BTN3A1 (listed as DNA, chemistry not fully specified) | 18.173 | 2.7951 | 4251.1 | TRUE |  |  |  | 
23 | NLRC5_AGTCACGTGTCCTACCGTC: library sgRNA targeting NLRC5 (listed as DNA, chemistry not fully specified) | 6.4705 | 1.0275 | 5262.4 | TRUE |  |  |  | 
24 | TSC2_AGCATCTCATACACACGCG: library sgRNA targeting TSC2 (listed as DNA, chemistry not fully specified) | 6.0284 | −2.8218 | 463.96 | FALSE |  |  |  | 
25 | MTG2_ATGAGTACATTGCCGCGCT: library sgRNA targeting MTG2 (listed as DNA, chemistry not fully specified) | 6.5262 | −4.2612 | 163.79 | FALSE |  |  |  | 
26 | SHMT2_CAACCTCACGACCGGATCA: library sgRNA targeting SHMT2 (listed as DNA, chemistry not fully specified) | 5.9975 | −5.253 | 63.415 | FALSE |  |  |  | 
27 | NUDCD3_TCACCACGTGCTTGGGTAC: library sgRNA targeting NUDCD3 (listed as DNA, chemistry not fully specified) | 6.5243 | −3.6651 | 262.75 | FALSE |  |  |  | 
28 | PHB_GACCGATTCCGTGGAGTGC: library sgRNA targeting PHB (as printed in the source, key not given here) | 6.0021 | −3.7742 | 202.44 | FALSE |  |  |  | 
29 | EEFSEC_TCATCCGGACCATCATCGG: library sgRNA targeting EEFSEC (listed as DNA, chemistry not fully specified) | 6.18 | −4.9819 | 83.299 | FALSE |  |  |  | 
30 | PNLIPRP1_GCCCCTGAAAATTCTCCCC: library sgRNA targeting PNLIPRP1 (chemistry not given here) |  |  |  |  | −2.1878 | FALSE | 7.0018 | 1182.9
31 | NAPG_GCAAAAGATGCCTGCCTGA: library sgRNA targeting NAPG (listed as DNA, chemistry not fully specified) | 6.3569 | −6.2732 | 33.086 | FALSE |  |  |  | 
32 | OIP5_CGACTCGGTGCACCTCGCC: library sgRNA targeting OIP5 (as printed in the source, key not given here) | 6.3045 | −7.255 | 16.543 | FALSE |  |  |  | 
33 | GGNBP2_GTATGGGAACTAATGTCGC: library sgRNA targeting GGNBP2 (listed as DNA, chemistry not fully specified) | 6.4369 | 1.4472 | 2491.2 | TRUE |  |  |  | 
34 | ACACA_GTTAGAGACGCTATTCCGC: library sgRNA targeting ACACA (listed as DNA, chemistry not fully specified) | 7.4534 | −5.2135 | 104.65 | FALSE |  |  |  | 
35 | UGGT2_TTCGCAATCTTGGGATCAA: library sgRNA targeting UGGT2 (listed as DNA, chemistry not fully specified) | 8.3503 | 1.6772 | 3035.8 | TRUE |  |  |  | 
36 | SPI1_CACGTCCTCGATACCCCCA: library sgRNA targeting SPI1 (as printed in the source, key not given here) | 9.6891 | 1.4776 | 5441.8 | TRUE |  |  |  | 
